Data on 21 molecules can be found in patent US9745304B2, “Amidoimidazopyridazines as MKNK-1 kinase inhibitors” (BAYER PHARMA AKTIENGESELLSCHAFT, priority 2013, dated 2017).

Test [1] deals with human full-lengt MKNK1 (GST fusion, T344D) (Homo sapiens (Human), UniProt Q9BUB5, T344D). Briefly: MKNK1 kinase assay (TR-FRET, 10 μM ATP). The test is classed as biochemical. The settings on record: 15 min preincubation. On the procedure: MKNK1-inhibitory activity of compounds of the present invention was quantified employing the MKNK1 TR-FRET assay as described in the following paragraphs.
Sequence of human full-lengt MKNK1 (GST fusion, T344D) (Q9BUB5 other isoform, or with tags, fused parts or gaps T344D): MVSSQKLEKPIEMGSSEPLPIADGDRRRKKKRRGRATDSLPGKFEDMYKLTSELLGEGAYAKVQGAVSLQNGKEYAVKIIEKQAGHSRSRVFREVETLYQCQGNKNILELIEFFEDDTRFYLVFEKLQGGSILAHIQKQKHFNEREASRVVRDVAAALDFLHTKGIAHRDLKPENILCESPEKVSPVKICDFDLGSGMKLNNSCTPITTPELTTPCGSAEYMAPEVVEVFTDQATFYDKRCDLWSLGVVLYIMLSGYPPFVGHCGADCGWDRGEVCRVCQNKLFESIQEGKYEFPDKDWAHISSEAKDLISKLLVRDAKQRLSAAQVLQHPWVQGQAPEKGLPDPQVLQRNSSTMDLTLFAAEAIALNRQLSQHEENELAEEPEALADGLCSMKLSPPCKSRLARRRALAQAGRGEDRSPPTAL
As substrate for the kinase reaction the biotinylated peptide biotin-Ahx-[…] (C-terminus in amide form) was used which can be purchased e.g. form the company Biosyntan (Berlin-Buch, Germany).
For the assay 50 nL of a 100 fold concentrated solution of the test compound in DMSO was pipetted into a black low volume 384 well microtiter plate (Greiner Bio-One, Frickenhausen, Germany), 2 μL of a solution of MKNK1 in aqueous assay buffer [50 mM HEPES pH 7.5, 5 mM magnesium chloride, 1.0 mM dithiothreitol, 0.005% (v/v) Nonidet-P40 (Sigma)] was added and the mixture was incubated for 15 min at 22° C. to allow pre-binding of the test compounds to the enzyme before the start of the kinase reaction. […] The concentration of MKNK1 was adjusted depending of the activity of the enzyme lot and was chosen appropriate to have the assay in the linear range, typical concentrations were in the range of 0.05 μg/ml. The reaction was stopped by the addition of 5 μL of a solution of TR-FRET detection reagents (5 nM streptavidine-XL665 [Cisbio Bioassays, Codolet, France] and 1 nM anti-ribosomal protein S6 (pSer236)-antibody from Invitrogen [#44921G] and 1 nM LANCE EU-W1024 labeled ProteinG [Perkin-Elmer, product no. AD0071]) in an aqueous EDTA-solution (100 mM EDTA, 0.1% (w/v) bovine serum albumin in 50 mM HEPES pH 7.5).
(§1) The resulting mixture was incubated for 1 h at 22° C. to allow the formation of complex between the phosphorylated biotinylated peptide and the detection reagents. Subsequently the amount of phosphorylated substrate was evaluated by measurement of the resonance energy transfer from the Eu-chelate to the streptavidine-XL. Therefore, the fluorescence emissions at 620 nm and 665 nm after excitation at 350 nm were measured in a TR-FRET reader, e.g. a Rubystar (BMG Labtechnologies, Offenburg, Germany) or a Viewlux (Perkin-Elmer). The ratio of the emissions at 665 nm and at 622 nm was taken as the measure for the amount of phosphorylated substrate.

Test [2] deals with human full-length MKNK1 (GST fusion, T344D) (Homo sapiens (Human), UniProt Q9BUB5, T344D). Briefly: MKNK1 kinase high ATP assay (TR-FRET, 2 mM ATP). The test is classed as biochemical. The settings on record: 15 min preincubation. As for the experimental part:
MKNK1 Kinase High ATP Assay
MKNK1-inhibitory activity at high ATP of compounds of the present invention after their preincubation with MKNK1 was quantified employing the TR-FRET-based MKNK1 high ATP assay as described in the following paragraphs.
As substrate for the kinase reaction the biotinylated peptide biotin-Ahx-[…] (C-terminus in amide form) was used, which can be purchased e.g. from the company Biosyntan (Berlin-Buch, Germany).
For the assay 50 nL of a 100 fold concentrated solution of the test compound in DMSO was pipetted into a black low volume 384 well microtiter plate (Greiner Bio-One, Frickenhausen, Germany), 2 μL of a solution of MKNK1 in aqueous assay buffer [50 mM HEPES pH 7.5, 5 mM magnesium chloride, 1.0 mM dithiothreitol, 0.005% (v/v) Nonidet-P40 (Sigma)] was added and the mixture was incubated for 15 min at 22° C. to allow pre-binding of the test compounds to the enzyme before the start of the kinase reaction. Then the kinase reaction was started by the addition of 3 μL of a solution of adenosine-tri-phosphate (ATP, 3.3 mM=>final conc. in the 5 μL assay volume is 2 mM) and substrate (0.1 μM=>final conc. in the 5 μL assay volume is 0.06 μM) in assay buffer and the resulting mixture was incubated for a reaction time of 30 min at 22° C. The concentration of MKNK1 was adjusted depending of the activity of the enzyme lot and was chosen appropriate to have the assay in the linear range, typical concentrations were in the range of 0.003 μg/mL. The reaction was stopped by the addition of 5 μL of a solution of TR-FRET detection reagents (5 nM streptavidine-XL665 [Cisbio Bioassays, Codolet, France] and 1 nM anti-ribosomal protein S6 (pSer236)-antibody from Invitrogen [#44921G] and 1 nM LANCE EU-W1024 labeled ProteinG [Perkin-Elmer, product no. AD0071]) in an aqueous EDTA-solution (100 mM EDTA, 0.1% (w/v) bovine serum albumin in 50 mM HEPES pH 7.5).
as §1

Sequence of human full-length MKNK1 (GST fusion, T344D) (Q9BUB5 other isoform, or with tags, fused parts or gaps T344D): as above

Regarding `O=C(Cc1ccccc1)Nc1ccc2ncc(-c3cc4ccccc4o3)n2n1` [Example 1, N-[3-(1-Benzofuran-2-yl)imidazo[1,2-b]pyridazin-6-yl]-2-phenylacetamide], the IC50 was 8 nM in test [1] and 18 nM in test [2].

`O=C(Nc1ccc2ncc(-c3cc4ccccc4o3)n2n1)C(O)c1ccccc1` (stereo not drawn) [Example 2, N-[3-(1-Benzofuran-2-yl)imidazo[1,2-b]pyridazin-6-yl]-2-hydroxy-2-phenylacetamide]: the IC50 in test [1] is 7 nM; in test [2], 18 nM.

With `O=C(Nc1ccc2ncc(-c3cc4ccccc4o3)n2n1)C(O)c1cccnc1` (stereo not drawn) [Example 3, N-[3-(1-Benzofuran-2-yl)imidazo[1,2-b]pyridazin-6-yl]-2-hydroxy-2-(pyridin-3-yl)acetamide], the IC50 was 3 nM in test [1] and 11 nM in test [2].

In the case of `O=C(Nc1ccc2ncc(-c3cc4ccccc4o3)n2n1)C(O)C1CCCCC1` (stereo not drawn) [Example 4, N-[3-(1-Benzofuran-2-yl)imidazo[1,2-b]pyridazin-6-yl]-2-cyclohexyl-2-hydroxyacetamide], the results for the IC50 in test [1] and in test [2] were 7 nM and 10 nM, respectively.

Consider `O=C(Cc1ccccn1)Nc1ccc2ncc(-c3cc4ccccc4o3)n2n1` [Example 6, N-[3-(1-Benzofuran-2-yl)imidazo[1,2-b]pyridazin-6-yl]-2-(pyridin-2-yl)acetamide], for which the values for the IC50 in test [1] and in test [2] were 7 nM and 12 nM, respectively.

Take `O=C(Cc1cccc(F)c1)Nc1ccc2ncc(-c3cc4ccccc4o3)n2n1` [Example 8, N-[3-(1-Benzofuran-2-yl)imidazo[1,2-b]pyridazin-6-yl]-2-(3-fluorophenyl)-acetamide]: the IC50 in test [1] is 10 nM; in test [2], 23 nM.

In the case of `O=C(CCc1cccnc1)Nc1ccc2ncc(-c3cc4ccccc4o3)n2n1` [Example 9, N-[3-(1-Benzofuran-2-yl)imidazo[1,2-b]pyridazin-6-yl]-3-(pyridin-3-yl)propanamide], the results for the IC50 in test [1] and in test [2] were 3 nM and 7 nM, respectively.

As for `O=C(Nc1ccc2ncc(-c3cc4ccccc4o3)n2n1)c1cc(=O)[nH]c(=O)[nH]1` [Example 10, N-[3-(1-Benzofuran-2-yl)imidazo[1,2-b]pyridazin-6-yl]-2,6-dioxo-1,2,3,6-tetrahydropyrimidine-4-carboxamide], the IC50 in test [1] and in test [2] was 36 nM throughout.

On to `O=C1CC[C@@H](CO)N1c1ccc2ncc(-c3cc4ccccc4o3)n2n1` [Example 11, (5S)-1-[3-(1-Benzofuran-2-yl)imidazo[1,2-b]pyridazin-6-yl]-5-(hydroxymethyl)-pyrrolidin-2-one], for which the IC50 in test [1] was 3 nM; in test [2] it was 7 nM.

In the case of `C[C@@H](O)C(=O)Nc1ccc2ncc(-c3cc4ccccc4o3)n2n1` [Example 13, (2R)—N-[3-(1-Benzofuran-2-yl)imidazo[1,2-b]pyridazin-6-yl]-2-hydroxypropanamide], the values for the IC50 in test [1] and in test [2] were 4 nM and 12 nM, respectively.

Consider `C[C@H](O)C(=O)Nc1ccc2ncc(-c3cc4ccccc4o3)n2n1` [Example 14, (2S)—N-[3-(1-Benzofuran-2-yl)imidazo[1,2-b]pyridazin-6-yl]-2-hydroxypropanamide], for which the figures for the IC50 in test [1] and in test [2] were 8 nM and 20 nM, respectively.

As for `COc1nccc2oc(-c3cnc4ccc(NC(=O)[C@@H](C)O)nn34)cc12` [Example 15, (2R)-2-hydroxy-N-[3-(4-methoxyfuro[3,2-c]pyridin-2-yl)imidazo[1,2-b]-pyridazin-6-yl]propanamide], the IC50 in test [1] is 3 nM; in test [2], 7 nM.

`COc1nccc2oc(-c3cnc4ccc(NC(=O)[C@H](C)O)nn34)cc12` [Example 16, (2S)-2-hydroxy-N-[3-(4-methoxyfuro[3,2-c]pyridin-2-yl)imidazo[1,2-b]pyridazin-6-yl]propanamide]: the IC50 turned out to be 10 nM in test [1] and 13 nM in test [2].

With `CC(C)CC(=O)Nc1ccc2ncc(-c3cc4ccccc4o3)n2n1` [Example 17, N-[3-(1-Benzofuran-2-yl)imidazo[1,2-b]pyridazin-6-yl]-3-methylbutanamide], the IC50 in test [1] worked out at 4 nM; in test [2], 7 nM.

Take `O=C(CCc1c[nH]cn1)Nc1ccc2ncc(-c3cc4ccccc4o3)n2n1` [Example 19, N-[3-(1-Benzofuran-2-yl)imidazo[1,2-b]pyridazin-6-yl]-3-(1H-imidazol-4-yl)-propanamide]: the results for the IC50 in test [1] and in test [2] were 8 nM and 6 nM, respectively.

For `N#Cc1cccc(CC(=O)Nc2ccc3ncc(-c4cc5ccccc5o4)n3n2)c1` [Example 21, N-[3-(1-benzofuran-2-yl)imidazo[1,2-b]pyridazin-6-yl]-2-(3-cyanophenyl)acetamide], the IC50 in test [1] came to 14 nM; in test [2] it was 11 nM.

For `O=C(CCC1CC1)Nc1ccc2ncc(-c3cc4ccccc4o3)n2n1` [Example 22, N-[3-(1-benzofuran-2-yl)imidazo[1,2-b]pyridazin-6-yl]-3-cyclopropylpropanamide], the IC50 in test [1] is 13 nM; in test [2], 23 nM.

As for `CCN(CC)CCC(=O)Nc1ccc2ncc(-c3cc4ccccc4o3)n2n1` [Example 23, N-[3-(1-benzofuran-2-yl)imidazo[1,2-b]pyridazin-6-yl]-N^3,N^3-diethyl-β-alaninamide], the results for the IC50 in test [1] and in test [2] were 9 nM and 13 nM, respectively.

Take `N#CC1(C(=O)Nc2ccc3ncc(-c4cc5ccccc5o4)n3n2)CC1` [Example 24, N-[3-(1-benzofuran-2-yl)imidazo[1,2-b]pyridazin-6-yl]-1-cyanocyclopropane carboxamide]: the IC50 in test [1] came to 25 nM; in test [2] it was 36 nM.

In the case of `Cc1cccc(CCC(=O)Nc2ccc3ncc(-c4cc5ccccc5o4)n3n2)c1` [Example 31, N-[3-(1-benzofuran-2-yl)imidazo[1,2-b]pyridazin-6-yl]-3-(3-methylphenyl)propanamide], the IC50 in test [1] stood at 67 nM; in test [2] it was 62 nM.

With `CC1CCN(CC(=O)Nc2ccc3ncc(-c4cc5ccccc5o4)n3n2)CC1` [Example 32, N-[3-(1-benzofuran-2-yl)imidazo[1,2-b]pyridazin-6-yl]-2-(4-methylpiperidin-1-yl)acetamide], the IC50 in test [1] is 17 nM; in test [2], 18 nM.
